Experimental data: US12436145B2, “Cryptic antibiotics and methods for detecting bioactive cryptic metabolites” (THE TRUSTEES OF PRINCETON UNIVERSITY, priority 2019, dated 2025)
Values after ≈ are worked out from the molar mass of the structure shown. Like-named read-outs stand apart in the source and are kept apart here.

Experiments:
A. baumannii ATCC 19606 = assay: Minimal inhibitory concentration (CLSI methods); assay type: cell-based, Acinetobacter baumannii
Procedure: (§1) Antibacterial assays with taylorflavin B (8) were carried out by Micromyx, LLC in accordance with methods from the Clinical and Laboratory Standards Institute. Minimal inhibitory concentrations were determined with the following strains: E. coli ATCC 25922, A. baumannii ATCC 19606, V. cholerae BAA-2163, N. gonorrhoeae ATCC 49226, P. aeruginosa ATCC 27853, K. pneumoniae MMX 214. S. aureus ATCC 29213, S. aureus MMX 2011, S. pneumoniae ATCC 49619, S. pyogenes MMX 6253, S. agalactiae MMX 6189, E. faecalis ATCC 29212, E. faecalis MMX 486, B. subtilis ATCC 6633, C. difficile ATCC 700057, B. fragilis ATCC 25285. Assays with taylorflavin A (7) were carried in-house according to the same protocols.

V. cholerae BAA-2163 = assay: Minimal inhibitory concentration (CLSI methods); assay type: cell-based, Vibrio cholerae
Procedure: as §1

B. fragilis ATCC 25285 = assay: Minimal inhibitory concentration (CLSI methods); assay type: cell-based
Procedure: as §1

B. subtilis ATCC 6633 = assay: Minimal inhibitory concentration (CLSI methods); assay type: cell-based
Procedure: as §1

C. difficile ATCC 700057 = assay: Minimal inhibitory concentration (CLSI methods); assay type: cell-based
Procedure: as §1

E. coli ATCC 25922 = assay: Minimal inhibitory concentration (CLSI methods); assay type: cell-based
Procedure: as §1

E. faecalis ATCC 29212 = assay: Minimal inhibitory concentration (CLSI methods); assay type: cell-based; details: E. faecalis VSE
Procedure: as §1

E. faecalis MMX 486 = assay: Minimal inhibitory concentration (CLSI methods); assay type: cell-based; details: E. faecalis VRE
Procedure: as §1

K. pneumoniae MMX 214 = assay: Minimal inhibitory concentration (CLSI methods); assay type: cell-based
Procedure: as §1

[1] = test system: N. gonorrhoeae ATCC 49226; assay: Minimal inhibitory concentration (CLSI methods); assay type: cell-based
Procedure: as §1

P. aeruginosa ATCC 27853 = assay: Minimal inhibitory concentration (CLSI methods); assay type: cell-based
Procedure: as §1

S. agalactiae MMX 6189 = assay: Minimal inhibitory concentration (CLSI methods); assay type: cell-based
Procedure: as §1

S. aureus ATCC 29213 = assay: Minimal inhibitory concentration (CLSI methods); assay type: cell-based
Procedure: as §1

S. aureus MMX 2011 = assay: Minimal inhibitory concentration (CLSI methods); assay type: cell-based; details: S. aureus MRSA
Procedure: as §1

S. pneumoniae ATCC 49619 = assay: Minimal inhibitory concentration (CLSI methods); assay type: cell-based; details: S. pneumoniae PSPP
Procedure: as §1

S. pyogenes MMX 6253 = assay: Minimal inhibitory concentration (CLSI methods); assay type: cell-based
Procedure: as §1

[2] = test system: collection of Gram-positive bacteria; assay: Antibacterial assays, Gram-positive panel; assay type: cell-based
Procedure: as §1

E. coli = assay: In-house bioactivity assays of induced peaks and purified taylorflavins; assay type: cell-based
S. hiroshimensis A18 = assay: Validation of elicitor: disc diffusion assay of culture extracts on E. coli ZSR638; assay type: cell-based, Streptomyces hiroshimensis; details: S. hiroshimensis culture induced by 33 μM atenolol; uninduced control none
Procedure: Seed cultures of S. hiroshimensis A18 were prepared as described for the HiTES screen above. […] A control flask was prepared containing the same volume of DMSO, rather than atenolol. The culture was incubated at 30° C./200 rpm. […] The organic phases were combined, divided in two, and dried in vacuo.
For the disc diffusion assays, the dried control and atenolol-treated culture extracts were dissolved in 100 μL of DMSO each. Filter paper discs were infused with 30 μL of each sample, allowed to dry, and then placed on a soft LB agar (1% agarose) plate inoculated with E. coli ZSR638 at a concentration of 2×10^6 cells/mL. The agar plate was incubated at 37° C. for 10 h and then inspected visually.

several Vibrio strains = assay: Cebulantin bioactivity screen (IC50); assay type: cell-based; details: range over several Vibrio strains
[3] = test system: Gram-positive bacteria tested; assay: Cebulantin bioactivity screen; assay type: cell-based
β-galactosidase = details: cited from earlier work

Cn1nc2c(nc1=O)c(=O)n(C)c(=O)n2C [Taylorflavin B, 2-methylfervenulone]
minimal inhibitory concentration (MIC) (A. baumannii ATCC 19606): 16 µg/mL (≈ 71.7 µM) | minimal inhibitory concentration (MIC) (V. cholerae BAA-2163): 16 µg/mL (≈ 71.7 µM) | minimal inhibitory concentration (MIC) (B. fragilis ATCC 25285): >64 µg/mL | minimal inhibitory concentration (MIC) (B. subtilis ATCC 6633): 64 µg/mL (≈ 287 µM) | minimal inhibitory concentration (MIC) (C. difficile ATCC 700057): >64 µg/mL | minimal inhibitory concentration (MIC) (E. coli ATCC 25922): 16 µg/mL (≈ 71.7 µM) | minimal inhibitory concentration (MIC) (E. faecalis ATCC 29212): >64 µg/mL | minimal inhibitory concentration (MIC) (E. faecalis MMX 486): 64 µg/mL (≈ 287 µM) | minimal inhibitory concentration (MIC) (K. pneumoniae MMX 214): >64 µg/mL | minimal inhibitory concentration (MIC) [1]: 4 µg/mL (≈ 17.9 µM) | minimal inhibitory concentration (MIC) (P. aeruginosa ATCC 27853): >64 µg/mL | minimal inhibitory concentration (MIC) (S. agalactiae MMX 6189): 32 µg/mL (≈ 143 µM) | minimal inhibitory concentration (MIC) (S. aureus ATCC 29213): 64 µg/mL (≈ 287 µM) | minimal inhibitory concentration (MIC) (S. aureus MMX 2011): 64 µg/mL (≈ 287 µM) | minimal inhibitory concentration (MIC) (S. pneumoniae ATCC 49619): 32 µg/mL (≈ 143 µM) | minimal inhibitory concentration (MIC) (S. pyogenes MMX 6253): 32 µg/mL (≈ 143 µM) | growth inhibition of Gram-positive bacteria [2]: did not inhibit the growth | antibiotic activity / inhibition of E. coli growth (E. coli): more potent inhibitor | antibiotic activity / inhibition of E. coli growth (E. coli; listed as 8): antibiotic activity

CC(C)NCC(O)COc1ccc(CC(N)=O)cc1 (centres unmarked) [atenolol]
zone of inhibition on E. coli agar plates (S. hiroshimensis A18): clear zone of inhibition

C/C=C1\NC(=O)CNC(=O)[C@H](Cc2ccccc2)NC(=O)[C@H](NC(=O)[C@@H](NC(=O)[C@@H]2CCCN2C(=O)CN)[C@@H](C)CC)[C@H](C)SC[C@@H]2NC(=O)[C@H](NC1=O)[C@H](C)SC[C@@H](C(=O)N1CCC[C@H]1C(=O)N[C@@H]1CSC[C@@H](C(=O)O)NC(=O)[C@H](CO)NC(=O)[C@H](C(C)C)NC(=O)/C(=C/C)NC(=O)[C@H](CC(N)=O)NC(=O)[C@H](C)NC1=O)NC(=O)[C@@H]1C[C@@H](O)CN1C(=O)/C(=C/C)NC(=O)CNC(=O)[C@H](Cc1c[nH]c3ccccc13)NC2=O [cebulantin]
IC50 (several Vibrio strains): 8.8 to 29.1 µM | growth-inhibitory activity [3]: no growth-inhibitory activity | IC50 (E. coli (ΔlptD)): 9.7 µM | IC50 (V. parahaemolyticus): 8.8 ± 2.1 µM | IC50 (V. cholerae): 14.1 ± 2.4 µM | IC50 (V. alginolyticus): 24.5 ± 3.2 µM | IC50 (V. ordahi): 27 ± 5.4 µM | IC50 (V. anguillarum): 29.1 ± 8.2 µM | IC50 (P. aeruginose): 47 ± 11.4 µM | IC50 (S. aureus): > 100 µM | IC50 (B. subtilis): > 100 µM

OCc1cc2c([nH]c3ccccc32)c(C(O)CO)n1 (centres unmarked) [pyridindolol]
inhibitory activity against β-galactosidase (β-galactosidase): inhibitory activity
